In patent US11434234B2, “Methods and agents for treating disease” (ANGION BIOMEDICA CORP., priority 2014, dated 2022):

Assays:
human CYP11B2 = target: T1, human CYP11B2 (Homo sapiens, UniProt P19099); test: Aldosterone inhibitory activity in V79 cells expressing human CYP11B2; type: cell-based; settings: V79 Chinese hamster cells stably transfected with human CYP11B2; substrate 11-deoxycorticosterone 100 nM; read-out: IC50, inhibition of the production of aldosterone
T1 construct: expressed in transfected cells; host or cells: V79 Chinese hamster cells
T1 sequence (P19099 25-503): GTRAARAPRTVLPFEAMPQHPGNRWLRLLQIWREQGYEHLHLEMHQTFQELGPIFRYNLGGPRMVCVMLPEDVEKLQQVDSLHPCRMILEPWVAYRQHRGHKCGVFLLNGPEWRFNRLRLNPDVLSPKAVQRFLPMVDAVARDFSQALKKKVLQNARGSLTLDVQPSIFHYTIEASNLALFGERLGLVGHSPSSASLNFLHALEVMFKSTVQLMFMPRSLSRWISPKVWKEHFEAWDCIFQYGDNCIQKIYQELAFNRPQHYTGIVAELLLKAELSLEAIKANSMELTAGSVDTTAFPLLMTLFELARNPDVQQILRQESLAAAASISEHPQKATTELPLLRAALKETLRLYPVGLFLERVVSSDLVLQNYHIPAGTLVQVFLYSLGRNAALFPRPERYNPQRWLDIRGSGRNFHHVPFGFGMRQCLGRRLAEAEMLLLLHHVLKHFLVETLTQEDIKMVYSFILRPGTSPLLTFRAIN
Description: For the determination of aldosterone inhibitory activity, tests were carried out using V79 Chinese hamster cells stably transfected with human CYP11B2 or CYP11B1 and using assay protocols as described in Ehmer P B, Bureik M, Bernhardt R, Muller U, Hartmann R W. Development of a test system for inhibitors of human aldosterone synthase (CYP11B2): screening in fission yeast and evaluation of selectivity in V79 cells. J. Steroid Biochem. Mol. Biol. 2002 June; 81(2):173-9. The concentration of the substrate 11-deoxycorticosterone in the assay was 100 nM.

aldosterone synthase = target: T2, aldosterone synthase (Homo sapiens, UniProt P19099); test: Ang-II stimulated aldosterone production in H295R cells (ELISA); type: cell-based
T2 construct: host or cells: H295R human adrenocortical carcinoma cells
T2 sequence (P19099 25-503): T1 sequence (P19099 25-503)
Description: To test the activity of compounds in a cell-based assay, a well-established assay described in the literature was used [Muller-Vieira U, Angotti M, Hartmann R W. The adrenocortical tumor cell line NCI-H295R as an in vitro screening system for the evaluation of CYP11B2 (aldosterone synthase) and CYP11B1 (steroid-11beta-hydroxylase) inhibitors. […] In brief, human adrenocortical carcinoma cells (H295R; ATCC CRL-2128) were plated in 96-well plates and the effect of compounds on angiotensin-II (Ang-II) stimulated aldosterone production was determined in the supernatant using an ELISA kit (Genway 40-521-475012). […] Compounds were tested in the aldosterone production assay at various concentrations and from dose-response inhibition curves the % inhibition at specific concentrations and the IC50 were calculated.

SMILES: CCCC(O)(c1nc2cc(F)c(OC(F)(F)F)cc2s1)c1cnccc1OCC (centres unmarked) [Example 62, 1-(4-ethoxypyridin-3-yl)-1-(5-fluoro-6-(trifluoromethoxy)benzo[d]thiazol-2-yl)butan-1-ol]
- IC50 (human CYP11B2): < 1000 nM

SMILES: CCCOc1ccncc1C(O)(CCC)c1nc2cc(Cl)c(OC(F)(F)F)cc2s1 (centres unmarked) [Example 63, 1-(5-chloro-6-(trifluoromethoxy)benzo[d]thiazol-2-yl)-1-(4-propoxypyridin-3-yl)butan-1-ol]
- IC50 (human CYP11B2): < 1000 nM

SMILES: CCCOc1ccncc1C(O)(CCC)c1nc2ccc(OC(F)(F)F)c(Cl)c2s1 (centres unmarked) [Example 64, 1-(7-chloro-6-(trifluoromethoxy)benzo[d]thiazol-2-yl)-1-(4-propoxypyridin-3-yl)butan-1-ol]
- IC50 (human CYP11B2): < 1000 nM

SMILES: CCCC(O)(c1nc2cc(Cl)c(OCC(F)(F)F)cc2s1)c1cnccc1OCC (centres unmarked) [Example 69, 1-(5-chloro-6-(2,2,2-trifluoroethoxy)benzo[d]thiazol-2-yl)-1-(4-ethoxypyridin-3-yl)butan-1-ol]
- IC50 (human CYP11B2): < 1000 nM

SMILES: CCCC(O)(c1nc2ccc(Br)cc2s1)c1cnccc1OC (centres unmarked) [Example 70, 1-(6-bromobenzo[d]thiazol-2-yl)-1-(4-methoxypyridin-3-yl)butan-1-ol]
- IC50 (human CYP11B2): < 1000 nM

SMILES: CCCC(O)(c1nc2ccc(C#N)cc2s1)c1cnccc1OCC (centres unmarked) [Example 72, 1-(6-cyanobenzo[d]thiazol-2-yl)-1-(4-ethoxypyridin-3-yl)butan-1-ol]
- IC50 (human CYP11B2): < 1000 nM

SMILES: CCCC(O)(c1nc2ccc(C(N)=O)cc2s1)c1cnccc1OCC (centres unmarked) [Example 73, 2-(1-(4-ethoxypyridin-3-yl)-1-hydroxybutyl)benzo[d]thiazole-6-carboxamide]
- IC50 (human CYP11B2): < 1000 nM

SMILES: CCOC(=O)c1cncn1[C@H](C)c1ccccc1 [etomidate]
- Ang-II stimulated aldosterone production (aldosterone synthase): significantly inhibited
- basal aldosterone production (aldosterone synthase): significantly inhibited

SMILES: CC(=O)N1CCN(c2ccc(OCC3COC(Cn4ccnc4)(c4ccc(Cl)cc4Cl)O3)cc2)CC1 (centres unmarked) [ketoconazole]
- Ang-II stimulated aldosterone production (aldosterone synthase): significantly inhibited
- basal aldosterone production (aldosterone synthase): significantly inhibited
